How the values were obtained:
Calu-1 cells = assay: Anti-proliferation (viability) of NSCLC Calu-1 cells, 3 days (Table 7, FIG. 2B); format: cell-based; details: Homo sapiens, 72 h; Calu-1 cells, 3 days, 10-point serial dilution; read-out: GI IC50 in Calu-1
How it was run: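 Cells treated with heterobifunctional compounds in 10-point serial dilution, then viability measured; Calu-1 NSCLC cells exposed for 3 days, ER+ T47D breast cancer cells for 6 days.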

MCF7 cells = assay: Anti-proliferation (viability) of MCF7 cells (Table 7, FIG. 2B); format: cell-based; details: Homo sapiens, MCF7, MCF7 cells, 3-6 days, 10-point serial dilution; read-out: GI IC50 in MCF-7

| Structure (SMILES) | IC50 (Calu-1 cells) | IC50 (MCF7 cells) |
| --- | --- | --- |
| CC(=O)c1c(C)c2cnc(Nc3ccc(N4CCN(C5CCN(C(=O)N6CC7(CCC(Nc8nc(NC(C)C)ccc8C(=O)Nc8ccc(N(C)C)nn8)C7)C6)C5)CC4)cn3)nc2n(C2CCCC2)c1=O (centres unmarked) [CPD-545, 2-((2-(3-(4-(6-((6-acetyl-8-cyclopentyl-5-methyl-7-oxo-7,8-dihydropyrido[2,3-d]pyrimidin-2-yl)amino)pyridin-3-yl)piperazin-1-yl)pyrrolidine-1-carbonyl)-2-azaspiro[3.4]octan-6-yl)amino)-N-(6-(dimethylamino)pyridazin-3-yl)-6-(isopropylamino)nicotinamide] | 10 to 50 nM | > 100 nM |
| CC(=O)c1c(C)c2cnc(Nc3ccc(N4CCN(C5CCN(C(=O)[C@H]6CC[C@H](Nc7nc(NC(C)C)ccc7-c7nc8cnc(N(C)C)cc8[nH]7)CC6)C5)CC4)cn3)nc2n(C2CCCC2)c1=O (stereo partly drawn) [CPD-552, trans-6-acetyl-8-cyclopentyl-2-((5-(4-(1-(trans-4-((3-(6-(dimethylamino)-3H-imidazo[4,5-c]pyridin-2-yl)-6-(isopropylamino)pyridin-2-yl)amino)cyclohexane-1-carbonyl)pyrrolidin-3-yl)piperazin-1-yl)pyridin-2-yl)amino)-5-methylpyrido[2,3-d]pyrimidin-7(8H)-one] | ≥ 50 nM | > 100 nM |
| CCN1CCc2cc(-c3nc(Nc4ccc(CN5CCN(CC(=O)N6CC7(CC(Nc8nc(NC(C)C)ccc8C(=O)Nc8ccc(N(C)C)nn8)C7)C6)CC5)cn4)ncc3F)ccc2C1=O [CPD-553, N-(6-(dimethylamino)pyridazin-3-yl)-2-((2-(2-(4-((6-((4-(2-ethyl-1-oxo-1,2,3,4-tetrahydroisoquinolin-6-yl)-5-fluoropyrimidin-2-yl)amino)pyridin-3-yl)methyl)piperazin-1-yl)acetyl)-2-azaspiro[3.3]heptan-6-yl)amino)-6-(isopropylamino)nicotinamide] | ≥ 50 nM | > 100 nM |
| CCN1CCc2cc(-c3nc(Nc4ccc(CN5CCN(CC(=O)NC6CC7(C6)CC(Nc6nc(NC(C)C)ccc6C(=O)Nc6ccc(N(C)C)nn6)C7)CC5)cn4)ncc3F)ccc2C1=O (centres unmarked) [CPD-554, N-(6-(dimethylamino)pyridazin-3-yl)-2-((6-(2-(4-((6-((4-(2-ethyl-1-oxo-1,2,3,4-tetrahydroisoquinolin-6-yl)-5-fluoropyrimidin-2-yl)amino)pyridin-3-yl)methyl)piperazin-1-yl)acetamido)spiro[3.3]heptan-2-yl)amino)-6-(isopropylamino)nicotinamide] | ≥ 50 nM | > 100 nM |
| CC(C)Nc1ccc(C(=O)Nc2ccc(N(C)C)nn2)c(N[C@H]2CC[C@H](C(=O)N3CCC(N4CCN(c5ccc(Nc6ncc7cc(C(F)F)c(=O)n(C8CCCC8)c7n6)nc5)CC4)C3)CC2)n1 (stereo partly drawn) [CPD-559, 2-((trans-4-(3-(4-(6-((8-cyclopentyl-6-(difluoromethyl)-7-oxo-7,8-dihydropyrido[2,3-d]pyrimidin-2-yl)amino)pyridin-3-yl)piperazin-1-yl)pyrrolidine-1-carbonyl)cyclohexyl)amino)-N-(6-(dimethylamino)pyridazin-3-yl)-6-(isopropylamino)nicotinamide] | 10 to 50 nM | > 100 nM |
| CC(=O)c1c(C)c2cnc(Nc3ccc(CN4CCN(CC(=O)N5CCC(Nc6nc(NC(C)C)ccc6C(=O)Nc6cn7c(n6)CCC7)CC5)CC4)cn3)nc2n(C2CCCC2)c1=O [CPD-564, 2-((1-(2-(4-((6-((6-acetyl-8-cyclopentyl-5-methyl-7-oxo-7,8-dihydropyrido[2,3-d]pyrimidin-2-yl)amino)pyridin-3-yl)methyl)piperazin-1-yl)acetyl)piperidin-4-yl)amino)-N-(6,7-dihydro-5H-pyrrolo[1,2-a]imidazol-2-yl)-6-(isopropylamino)nicotinamide] | 10 to 50 nM | > 100 nM |
| CC(=O)c1c(C)c2cnc(Nc3ccc(N4CCN(CC(=O)NC5CC6(C5)CC(Nc5nc(NC(C)C)ccc5C(=O)Nc5cn7c(n5)CCC7)C6)CC4)cn3)nc2n(C2CCCC2)c1=O (centres unmarked) [CPD-566, 2-((6-(2-(4-(6-((6-acetyl-8-cyclopentyl-5-methyl-7-oxo-7,8-dihydropyrido[2,3-d]pyrimidin-2-yl)amino)pyridin-3-yl)piperazin-1-yl)acetamido)spiro[3.3]heptan-2-yl)amino)-N-(6,7-dihydro-5H-pyrrolo[1,2-a]imidazol-2-yl)-6-(isopropylamino)nicotinamide] | ≤ 10 nM | < 50 nM |
| [2H]C([2H])([2H])Nc1ccc(C(=O)Nc2cn3c(n2)CCC3)c(NC2CC3(C2)CN(C(=O)CC(N2CCN(c4ccc(Nc5ncc6c(C)c(C(C)=O)c(=O)n(C7CCCC7)c6n5)nc4)CC2)C(F)(F)F)C3)n1 (centres unmarked) [CPD-567, 2-((2-(3-(4-(6-((6-acetyl-8-cyclopentyl-5-methyl-7-oxo-7,8-dihydropyrido[2,3-d]pyrimidin-2-yl)amino)pyridin-3-yl)piperazin-1-yl)-4,4,4-trifluorobutanoyl)-2-azaspiro[3.3]heptan-6-yl)amino)-N-(6,7-dihydro-5H-pyrrolo[1,2-a]imidazol-2-yl)-6-((methyl-d3)amino)nicotinamide] | ≤ 10 nM | 50 to 100 nM |

Further lines, results first:

| IC50 (Calu-1 cells) | IC50 (MCF7 cells) | Structure (SMILES) |
| --- | --- | --- |
| ≤ 10 nM | < 50 nM | CC(=O)c1c(C)c2cnc(Nc3ccc(N4CCC(N5CCC[C@H]5C(=O)N5CC6(CC(Nc7nc(NC(C)C)ccc7C(=O)Nc7ccc(N(C)C)nn7)C6)C5)CC4)cn3)nc2n(C2CCCC2)c1=O [CPD-544, 2-((2-((1-(6-((6-acetyl-8-cyclopentyl-5-methyl-7-oxo-7,8-dihydropyrido[2,3-d]pyrimidin-2-yl)amino)pyridin-3-yl)piperidin-4-yl)-L-prolyl)-2-azaspiro[3.3]heptan-6-yl)amino)-N-(6-(dimethylamino)pyridazin-3-yl)-6-(isopropylamino)nicotinamide] |
| ≤ 10 nM | < 50 nM | CC(=O)c1c(C)c2cnc(Nc3ccc(CN4CCN(CC(=O)N5CCC6(CCC(Nc7nc(NC(C)C)ccc7C(=O)Nc7cc(C)n(C)n7)C6)C5)CC4)cn3)nc2n(C2CCCC2)c1=O (centres unmarked) [CPD-547, 2-((2-(2-(4-((6-((6-acetyl-8-cyclopentyl-5-methyl-7-oxo-7,8-dihydropyrido[2,3-d]pyrimidin-2-yl)amino)pyridin-3-yl)methyl)piperazin-1-yl)acetyl)-2-azaspiro[4.4]nonan-7-yl)amino)-N-(1,5-dimethyl-1H-pyrazol-3-yl)-6-(isopropylamino)nicotinamide] |
| ≤ 10 nM | < 50 nM | CC(=O)c1c(C)c2cnc(Nc3ccc(CN4CCN(CC(=O)N5CCC6(CCC(Nc7nc(NC(C)C)ccc7C(=O)Nc7cn(C)c(C8CC8)n7)C6)C5)CC4)cn3)nc2n(C2CCCC2)c1=O (centres unmarked) [CPD-548, 2-((2-(2-(4-((6-((6-acetyl-8-cyclopentyl-5-methyl-7-oxo-7,8-dihydropyrido[2,3-d]pyrimidin-2-yl)amino)pyridin-3-yl)methyl)piperazin-1-yl)acetyl)-2-azaspiro[4.4]nonan-7-yl)amino)-N-(2-cyclopropyl-1-methyl-1H-imidazol-4-yl)-6-(isopropylamino)nicotinamide] |
| ≤ 10 nM | < 50 nM | CC(=O)c1c(C)c2cnc(Nc3ccc(CN4CCN(CC(=O)N5CCC6(CCC(Nc7nc(NC(C)C)ccc7C(=O)Nc7cc8n(n7)CCC8)C6)C5)CC4)cn3)nc2n(C2CCCC2)c1=O (centres unmarked) [CPD-549, 2-((2-(2-(4-((6-((6-acetyl-8-cyclopentyl-5-methyl-7-oxo-7,8-dihydropyrido[2,3-d]pyrimidin-2-yl)amino)pyridin-3-yl)methyl)piperazin-1-yl)acetyl)-2-azaspiro[4.4]nonan-7-yl)amino)-N-(5,6-dihydro-4H-pyrrolo[1,2-b]pyrazol-2-yl)-6-(isopropylamino)nicotinamide] |
| ≤ 10 nM | 50 to 100 nM | CC(=O)c1c(C)c2cnc(Nc3ccc(N4CCN(C5CCN(C(=O)N6CC7(CCC(Nc8nc(NC(C)C)ccc8C(=O)Nc8ccc(N(C)C)nn8)CC7)C6)C5)CC4)cn3)nc2n(C2CCCC2)c1=O (centres unmarked) [CPD-555, 2-((2-(3-(4-(6-((6-acetyl-8-cyclopentyl-5-methyl-7-oxo-7,8-dihydropyrido[2,3-d]pyrimidin-2-yl)amino)pyridin-3-yl)piperazin-1-yl)pyrrolidine-1-carbonyl)-2-azaspiro[3.5]nonan-7-yl)amino)-N-(6-(dimethylamino)pyridazin-3-yl)-6-(isopropylamino)nicotinamide] |
| ≤ 10 nM | < 50 nM | CC(=O)c1c(C)c2cnc(Nc3ccc(N4CCN(C5CCN(C(=O)C6CCC7(CC(Nc8nc(NC(C)C)ccc8C(=O)Nc8ccc(N(C)C)nn8)C7)C6)C5)CC4)cn3)nc2n(C2CCCC2)c1=O (centres unmarked) [CPD-556, 2-((6-(3-(4-(6-((6-acetyl-8-cyclopentyl-5-methyl-7-oxo-7,8-dihydropyrido[2,3-d]pyrimidin-2-yl)amino)pyridin-3-yl)piperazin-1-yl)pyrrolidine-1-carbonyl)spiro[3.4]octan-2-yl)amino)-N-(6-(dimethylamino)pyridazin-3-yl)-6-(isopropylamino)nicotinamide] |
| ≤ 10 nM | > 100 nM | CC(=O)c1cc2cnc(Nc3ccc(N4CCN(C5CCN(C(=O)[C@H]6CC[C@H](Nc7nc(NC(C)C)ccc7C(=O)Nc7ccc(N(C)C)nn7)CC6)C5)CC4)cn3)nc2n(C2CCCC2)c1=O (stereo partly drawn) [CPD-560, 2-((trans-4-(3-(4-(6-((6-acetyl-8-cyclopentyl-7-oxo-7,8-dihydropyrido[2,3-d]pyrimidin-2-yl)amino)pyridin-3-yl)piperazin-1-yl)pyrrolidine-1-carbonyl)cyclohexyl)amino)-N-(6-(dimethylamino)pyridazin-3-yl)-6-(isopropylamino)nicotinamide] |
| ≤ 10 nM | > 100 nM | CC(=O)c1c(C)c2cnc(Nc3ccc(N4CCN(C5CCN(C(=O)N6CCC7(CCC(Nc8nc(NC(C)C)ccc8C(=O)Nc8ccc(N(C)C)nn8)C7)C6)C5)CC4)cn3)nc2n(C2CCCC2)c1=O (centres unmarked) [CPD-561, 2-((2-(3-(4-(6-((6-acetyl-8-cyclopentyl-5-methyl-7-oxo-7,8-dihydropyrido[2,3-d]pyrimidin-2-yl)amino)pyridin-3-yl)piperazin-1-yl)pyrrolidine-1-carbonyl)-2-azaspiro[4.4]nonan-7-yl)amino)-N-(6-(dimethylamino)pyridazin-3-yl)-6-(isopropylamino)nicotinamide] |
